What all share (format): cell-based, human
The subject of test [1] is HCT116 p53^+/+ parental cells. As to the kind of experiment: MTT cytotoxicity assay, HCT116 p53^+/+ parental cells. The following applies: 72 h. How it is done: (§1) Tissue culture. HCT116 p53^+/+ and p53^−/− isogenic human colon cancer cells were kindly provided by Professor Bert Vogelstein (John Hopkins University, Baltimore, Md.). Drug-resistant HCT116 sub-lines were developed in the inventors' laboratory by repeated exposure to stepwise increasing concentrations of 5-FU, CPT-11 or oxaliplatin over a period of approximately ten months. Parental and drug-resistant HCT116 cell lines were grown in McCoy's 5A medium supplemented with 10% dialysed foetal calf serum (FCS), 50 μg/ml penicillin-streptomycin, 2 mM L-glutamine and 1 mM sodium pyruvate (all from GIBCO Invitrogen Corporation, Paisley, Scotland) and maintained at 37° C. in a humidified atmosphere containing 5% CO2. 5-FU-resistant p53^+/+ and p53^−/− HCT116 cells were maintained in the presence of 2 μM and 4 μM 5-FU respectively. CPT-11-resistant p53^+/+ and p53^−/− HCT116 cells were maintained in the presence of 1 μM and 3 μM CPT-11 respectively. […] Prior to each experiment, resistant sub-lines were cultured in the absence of drug for 48 hours.
(§2) Cytotoxicity studies. Cells were seeded at 2000 cells per well in 96-well microtiter plates. After 48 hours, cells were treated with a range of concentrations of 5-FU, CPT-11 or oxaliplatin.
(§3) After 72 hours, 25 μl of MTT dye (5 mg/ml) was added to each well and the plates were incubated at 37° C. for 3 hours. Dark-blue formazan crystals formed by live cells were dissolved in 200 μl of DMSO and absorbance in individual wells was determined at 570 nm using an Emax precision microplate reader (Molecular Devices, Sunnyvale, Calif.).
For orientation: Formazan colour is commonly taken as a measure of viable cells.

Test [2] deals with p53^+/+ 5-FU-resistant HCT116 cells. Kind of test: MTT cytotoxicity assay, p53^+/+ 5-FU-resistant HCT116 cells. The note with it: for IC50: p53^+/+ 5-FU-resistant, MTT, 72 h.
Test [3] concerns p53^+/+ oxaliplatin-resistant HCT116 cells. As to the kind of experiment: MTT cytotoxicity assay, p53^+/+ oxaliplatin-resistant HCT116 cells. The following applies: for IC50: p53^+/+ oxaliplatin-resistant, MTT, 72 h; for increase in IC50 (72 hr) compared to parental cells: p53^+/+ oxaliplatin-resistant vs p53^+/+ parental. Here is the method: as §1, §2, §3
For test [4], the system named is p53^+/+ CPT-11-resistant HCT116 cells. Kind of test: MTT cytotoxicity assay, p53^+/+ CPT-11-resistant HCT116 cells. The following applies: for IC50: p53^+/+ CPT-11-resistant, MTT, 72 h; for increase in IC50 (72 hr) compared to parental cells: p53^+/+ CPT-11-resistant vs p53^+/+ parental.
The test system of test [5] is HCT116 p53^−/− parental cells. Kind of test: MTT cytotoxicity assay, HCT116 p53^−/− parental cells. The note with it: for IC50: MTT, 72 h. Here is the method: as §1, §2, §3
Test [6] relates to p53^−/− 5-FU-resistant HCT116 cells. As to the kind of experiment: MTT cytotoxicity assay, p53^−/− 5-FU-resistant HCT116 cells. The following applies: p53^−/− 5-FU-resistant, MTT, 72 h.
Test [7] has as its system p53^−/− oxaliplatin-resistant HCT116 cells. Kind of test: MTT cytotoxicity assay, p53^−/− oxaliplatin-resistant HCT116 cells. The following applies: for IC50: p53^−/− oxaliplatin-resistant, MTT, 72 h; for increase in IC50 (72 hr) compared to parental cells: p53^−/− oxaliplatin-resistant vs p53^−/− parental. How it is done:
as §1, §2, §3

In test [8] the test system is p53^−/− CPT-11-resistant HCT116 cells. As to the kind of experiment: MTT cytotoxicity assay, p53^−/− CPT-11-resistant HCT116 cells. The following applies: for IC50: p53^−/− CPT-11-resistant, MTT, 72 h; for increase in IC50 (72 hr) compared to parental cells: p53^−/− CPT-11-resistant vs p53^−/− parental.
Test [9] relates to p53^+/+ HCT116 parental cells. As to the kind of experiment: Flow cytometry cell cycle/apoptosis, p53^+/+ HCT116 parental cells. The note with it: 72 hours. (In general: In flow cytometry, cells or beads pass a laser one at a time.)
The subject of test [10] is p53^+/+ 5-FU-resistant HCT116 cells. As to the kind of experiment: Flow cytometry cell cycle/apoptosis, p53^+/+ 5-FU-resistant cells. The following applies: p53^+/+ 5-FU-resistant cell line, data not shown.
In test [11] the test system is p53^+/+ CPT-11-resistant HCT116 cells. Kind of test: Flow cytometry cell cycle/apoptosis, p53^+/+ CPT-11-resistant cells. The following applies: 72 hours. Here is the method:
as §1
(§4) Flow cytometry. Cells were seeded at 5×10^4 cells per well in 6-well plates. After 48 hours, cells were treated with a range of concentrations of 5-FU, CPT-11 or oxaliplatin. Seventy-two hours post-treatment, cells were harvested in 5 ml of 1× PBS/0.5 mM EDTA and pelleted by centrifugation at 1000 rpm/4° C. for 5 minutes. Cell pellets were washed once with 1× PBS/1% FCS, fixed in 70% ethanol and stained with propidium iodide. Analyses were performed on a Beckman Coulter Epics XL flow cytometer (Miami, Fla.).

For test [12], the system named is p53^−/− HCT116 parental cells. Kind of test: Flow cytometry cell cycle/apoptosis, p53^−/− HCT116 parental cells. The following applies: 72 hours; for drug-induced apoptosis in p53^−/− compared to p53^+/+ parental cells: range of concentrations.
For test [13], the system named is p53^−/− CPT-11-resistant HCT116 cells. As to the kind of experiment: Flow cytometry cell cycle/apoptosis, p53^−/− CPT-11-resistant cells.
In test [14] the test system is p53^+/+ HCT116 cells. As to the kind of experiment: PARP cleavage immunoblotting, p53^+/+ HCT116 cells. The note with it: 48 hours, Western blot. Background: A western blot detects proteins with antibodies after separation by electrophoresis.
Test [15] deals with p53^−/− HCT116 cells. As to the kind of experiment: PARP cleavage immunoblotting, p53^−/− HCT116 cells. The note with it: 48 hours, Western blot.
In test [16] the test system is p53^+/+ oxaliplatin-resistant HCT116 cells. Kind of test: Flow cytometry cell cycle/apoptosis, p53^+/+ oxaliplatin-resistant cells. The note with it: 72 hours. Here is the method: as §1, §4
Test [17] has as its system p53^−/− oxaliplatin-resistant HCT116 cells. As to the kind of experiment: Flow cytometry cell cycle/apoptosis, p53^−/− oxaliplatin-resistant cells. The note with it: same concentrations as parental (1 μM, 5 μM). How it is done:
as §1
Flow cytometry. Cells were seeded at 5×10^4 cells per well in 6-well plates. After 48 hours, cells were treated with a range of concentrations of 5-FU, CPT-11 or oxaliplatin. Seventy-two hours post-treatment, cells were harvested in 5 ml of 1× PBS/0.5 mM EDTA and pelleted by centrifugation at 1000 rpm/4° C. for 5 minutes. […]

[18] abbreviates: Homo sapiens, HCT-116, read-out: IC50(72 h).
Where [19] appears, read: parental HCT116 p53^−/− vs p53^+/+.
[20] abbreviates: HCT116 p53^+/+ parental, read-out: IC50(72 h).
[21] abbreviates: HCT116 p53^−/− parental, read-out: IC50(72 h).

The structures appear in SMILES notation. Like-named read-outs stand apart in the source and are kept apart here.

As usually defined, the IC50 is the midpoint of a concentration-inhibition curve. Consider `CCc1c2c(nc3ccc(OC(=O)N4CCC(N5CCCCC5)CC4)cc13)-c1cc3c(c(=O)n1C2)COC(=O)[C@]3(O)CC` [CPT-11, irinotecan], for which the IC50 in test [1] (Homo sapiens, HCT-116, HCT116 p53^+/+ parental, read-out: IC50(72 h)) came to 3.2 µM; in test [2] (setting [18]), 7.2 µM; in [3] (setting [18]), 2.9 µM; in test [4] (setting [18]) it was 30.3 µM; in [5] (Homo sapiens, HCT-116, HCT116 p53^−/− parental, read-out: IC50(72 h)), 3.1 µM; in test [6] (setting [18]) it was 2.8 µM. For the same compound, the values for the IC50 in test [7] (setting [18]) and in test [8] (setting [18]) were 3.5 µM and 200 µM, respectively. Moreover, the results for the “increase in IC50 (72 hr) compared to parental cells” value (“increase in IC50 (72 hr)” below) in test [2] (p53^+/+ 5-FU-resistant vs p53^+/+ parental), in test [4] and in test [8] were about 2 fold, 10.0 fold and 65.0 fold, respectively. Moreover, the “IC50 (72 h) in parental p53^+/+ and p53^−/− cells compared” value in test [5] (setting [19]) was “almost identical”. For the same compound, the cell cycle distribution entry was “accumulation of cells in S-phase” in test [9] (0.5 μM); “majority of cells were now arrested in G2/M” in test [9] (1 μM); “almost completely insensitive” in [11] (0.5 μM and 1 μM); “significant G2/M arrest and accumulation of polyploid cells” in test [11] (5 μM); “dramatic G2/M cell cycle arrest” in test [12] (0.5 μM and 1 μM); “no G2/M arrest was observed” in [13] (0.5 μM and 1 μM). Besides, the “cells in the sub-G0/G1 apoptotic phase” value in test [9] (5 μM) is about 40%. For the same compound, in test [10], the “cross-resistance examined using flow cytometry” value is “not apparent”. Also, the degree of apoptosis in test [11] (5 μM) was about 14%. The apoptotic cells in [12] (5 μM, ~2% in control samples) was about 35%. The “drug-induced apoptosis in p53^−/− compared to p53^+/+ parental cells” value in test [12] was “almost identical levels of apoptosis”. In addition, the “apoptosis” value in [13] (5 μM, 72 hours) is “no apoptosis was observed”. The PARP cleavage result in test [14] (5 μM) and in [15] (5 μM) was “evident” each time.
Take `CCc1c2c(nc3ccc(O)cc13)-c1cc3c(c(=O)n1C2)COC(=O)[C@]3(O)CC` [SN-38]: the IC50 in [1] (p53^+/+ Parental, read-out: SN-38 IC50(72 h)) was found to be 0.0056 µM; in test [2] (read-out: SN-38 IC50(72 h)), 0.0065 µM; in test [3] (read-out: SN-38 IC50(72 h)) it was 0.0037 µM; in [4] (read-out: SN-38 IC50(72 h)) it was 0.04 µM; in [5] (p53^−/− Parental, read-out: SN-38 IC50(72 h)) it was 0.0042 µM; in [6] (read-out: SN-38 IC50(72 h)) it was 0.0036 µM. Also, the figures for the IC50 in test [7] (read-out: SN-38 IC50(72 h)) and in test [8] (read-out: SN-38 IC50(72 h)) were 0.0033 µM and 0.54 µM, respectively. For the same compound, the results for the “increase in IC50 (72 hr)” value in [4] and in test [8] were about 10 fold and about 100 fold, respectively. Moreover, in test [5] (setting [19]), the “IC50 (72 h) in parental p53^+/+ and p53^−/− cells compared” value is reported as “similar”.
In the case of `N.N.O=C([O-])C1(C(=O)[O-])CCC1.[Pt+2]` [carboplatin], the IC50 in test [1] (setting [20]) came out at 76 µM; in [3] (read-out: IC50(72 h)) it was 176 µM; in test [5] (setting [21]) it was 78.7 µM; in [7] (read-out: IC50(72 h)) it was 141 µM. For the same compound, the “increase in IC50 (72 hr)” value in test [3] and in test [7] was about 2 fold throughout.
In the case of `N.N.[Cl][Pt][Cl]` [cisplatin], the IC50 in test [1] (setting [20]) is 5.4 µM; in test [3] (read-out: IC50(72 h)), 7.3 µM; in test [5] (setting [21]) it was 5.7 µM; in test [7] (read-out: IC50(72 h)), 6.7 µM.
As for `O=C1[O][Pt]2([NH][C@@H]3CCCC[C@H]3[NH]2)[O]C1=O` [oxaliplatin], the IC50 in [1] (setting [20]) is 0.3 µM; in test [2] (read-out: IC50(72 h)) it was 0.3 µM; in [3] (read-out: IC50(72 h)), 9.4 µM; in [4] (read-out: IC50(72 h)), 0.3 µM; in test [5] (setting [21]), 1.7 µM; in test [6] (read-out: IC50(72 h)), 1.9 µM. For the same compound, the IC50 in [7] (read-out: IC50(72 h)) was 17.9 µM; in test [8] (read-out: IC50(72 h)), 1.7 µM. Further, the “increase in IC50 (72 hr)” value in [3] is listed as 31.0 fold; in test [7] it was 10.5 fold. Moreover, the “increase in IC50 (72 h) dose in p53^−/− compared to p53^+/+ cells” value in test [5] (setting [19]) turned out to be 5.7 fold. Moreover, the cell cycle distribution entry in test [9] (0.5 μM) is “majority of cells had arrested in G2/M-phase”; in test [16] (0.5 μM and 1 μM), “unaffected”; in test [16] (5 μM) it was “majority of cells were arrested in S-phase”; in test [12] (1 μM) it was “S-phase block and a moderate increase in the polyploid fraction”; in test [12] (5 μM), “majority of cells were arrested in G2/M phase”; in test [17], “no change in cell cycle distribution”. Moreover, in test [9] (1 μM and 5 μM, ~2% in control samples), the “proportion of apoptotic cells” value is recorded as 40-50%. Moreover, the “induction of apoptosis compared to parental cells” value in test [16] is listed as “dramatically attenuated”. Besides, the “drug-induced apoptosis in p53^−/− compared to p53^+/+ parental cells” value in [12] is given as “significantly attenuated”. Besides, the PARP cleavage result is reported as “observed” in [14] (1 μM) and “not” in [15] (1 μM).

The values are drawn from US20070270488A1, “Treatment and Assays” (The Queen's University of Belfast, priority 2004, published 2007).
